# Measurements: patent US20040097534A1, “Composition for the protection and regeneration of nerve cells containing berberine derivatives” (EUGENBIO INC., priority 2001, published 2004)
# Where “and” joins values, the source holds several entries; their conditions need not be identical. Equal values may be shown once. Entries after “also recorded” stand apart in the source; their conditions may differ.
# Assays:
# SH-SY5Y cells [1] = test: MTT assay, SH-SY5Y survival under oxidative stress (H2O2); assay type: cell-based, human
# Protocol: SH-SY5Y cells were treated with H2O2 for 30 minutes to induce cell injuries. 3 hours before the cells were treated with H2O2, berberine (0.25˜3.5 μg) was added to cell culture to examine its cell protection effect (see, Table 4 and FIG. 4b).
# HiB5 cells [2] = test: Induction of differentiation of HiB5 cells into nerve cells (neurite count, confocal); assay type: cell-based, white rat; details: HiB5, bFGF positive control
# Protocol: (§1) Thereafter, the culture was treated with berberine and further cultured for 2 days. The cultured cells were immunostained with nerve cell-specific labeled molecule, and then the number of cells having neurites longer than cell bodies was counted under a confocal microscope. A positive control was treated with bFGF under the same condition as described above to induce the differentiation into nerve cells. In addition, the neuroregenerative effect was examined after berberine together with bFGF was treated. The differentiation degree was measured by double-staining neurites with nerve cell-specific labeled molecule (anti-neurofilament antibody) and FITC-labeled secondary antibody (green), followed by staining cell nuclei with propidium iodide (red).
# HiB5 cells [3] = test system: HiB5 cells
# Protocol: Since HiB5 cells derived from white rat embryonic hippocampus were prepared by retroviral infection of temperature sensitive SV40 large T antigen, they divided at […], but the cell division stopped at 39° C. (body temperature of rat). […] Cell culture medium was prepared by adding a mixture of 10% FBS (fetal bovine serum), penicillin/streptomycin, glutamine and sodium pyruvate (0.11 g/L) to DMEM. On differentiating at 39° C., another cell culture medium was prepared by adding pyruvate to a serum-free medium (N2, containing DMEM/F12, insulin, transferrin, Putreseine and BSA; Botten Stein & Sato., 1979). PC12 cells and SH-SY5Y cells were cultured in DMEM supplemented with 10% FBS. In order to differentiate the cells, NGF or retinoic acid was added to a serum-free medium.
# (§2) Cell injuries under condition of serum deprivation-induced stress and oxidative stress were measured by MTT assay. For MTT assay, Cells were seeded into N2 medium in an amount of 7.5×10^3 cells, and then a neurotoxin or a nerve growth factor was added thereto to differentiate the cells and then 0.1 volume of 4 mg/ml MTT was further added. The mixture was stored at 37° C. for 3-4 hours. After 100 μl of solubilization buffer was added to the mixture and then stored for 24 hours, O.D. values were measured by ELISA assay.
# HiB5 cell line used in this experiment was prepared by infecting primary cultured cells of temperature sensitive SV40 large T antigen in rat embryonic hippocampus (embryonic day 16) using retroviral vectors. The HiB5 cell line was divided at the permissive temperature (32° C.), but the cell division stopped at the non-permissive temperature (body temperature of rat: 39° C.). A small number of GABAegic neurons differentiated in the rat embryonic hippocampus (embryonic day 16), and glutamatergic pyramidal cell precursors still divided, some of which penetrated into dentate gyrus regions through dentate migration pathways in embryonic day 18 to differentiate into glutamatergic granule cells (Altman J., Bayer. S. A. (1990a) Prolonged sojourn of developing pyramidal cells in the intermediate zone of the hippocampus and their settling in the stratum pyramidale. J Comp Neurol. 301, 343-64.; Altman J., Das G. D. (1965) Post-natal origin of microneurones in the rat brain, Nature. 28, 953-956.). When cells stop their cell-division and start to differentiate in vivo, apoptosis occurs.
# In order to evaluate the protective effect of berberine against apoptosis and the effect of increasing cell survival, HiB5 cells were cultured under conditions for initiation of differentiation. At this time, the culture was treated with berberine at various concentrations (50 ng/ml˜6 μg/ml). The protective effect of berberine against apoptosis was measured by MTT assay. A positive control group was treated with bFGF to block apoptosis, increase cell survival and induce the differentiation into nerve cells.
# Since HiB5 neuronal stem cells undergo cell death during the differentiation, the cells were considered as a negative control group. The percentage of O.D. values is determined for the groups treated with bFGF and berberine, respectively.
# PC12 cells [4] = test: MTT assay, PC12 survival under dexamethasone (glucocorticoid) stress; assay type: cell-based, rat
# Protocol: as §2
# Glucocorticoids are hormones secreted from the adrenal glands, and involve in a variety of metabolic processes including glycometabolism. In particular, stress causes release of glucocorticoids to reduce cell divisions of neuronal stem cells in the brain and induce apoptosis of nerve cells. Therefore, PC12 cells were treated with dexamethasone, a glucocorticoid derivative, to examine the effect of berberine against apoptosis of nerve cells. 3 hours after treatment with berberine, dexamethasone (1) was added to a culture solution and incubated for 2 days to induce neuroregeneration (see, Table 5 and FIG. 5b).
# SH-SY5Y cells [5] = test: Neurite regeneration in SH-SY5Y cells; assay type: cell-based, human; details: retinoic acid
# Protocol: as §1, with “(red). In order to examine the effect of berberine on neurite regeneration, SH-SY5Y cells were used as differentiated nerve cell lines. Retinoic acid inducing neurite growth was used as a positive control.” for “(red).”
# SH-SY5Y cells [6] = test: MTT assay, SH-SY5Y survival under serum deprivation-induced stress; assay type: cell-based, human; details: N2 + retinoic acid 5 μM
# Protocol: as §2
# In order to prepare a stroke-like cell model using SH-SY5Y, the cells were cultured under serum deprivation. […] Retinoic acid, which induces the differentiation of SH-SY5Y as a cell differentiation factor, was used as a positive control. 3 hours before depriving serum, the cells were treated with berberine (0.25˜3 μg). The cells were cultured in chemically defined media (N2) for 2 days to induce nerve regeneration (see, Table 2 and FIG. 4a).
# [7] = test system: nerve cells highly sensitive to NMDA receptors; details: MK-801 to young rat (7-8-days old); cited from earlier work
# PC12 cells [8] = test: MTT assay, PC12 survival under serum deprivation-induced stress; assay type: cell-based, rat; details: RPMI + NGF 100 ng/ml
# Protocol: as §2
# NGF, increasing cell survival and inducing cell differentiation, was used as a positive control. After the cells were treated with berberine (0.25˜3 μg/ml), the cells were cultured for 2 days to induce nerve regeneration (see, Table 3 and FIG. 5a).
# [9] = test system: nerve cells in CA1, dentate gyrus and entorhinal cortex; test: Animal model for dementia (ibotenic acid into entorhinal cortex), calbindin-positive neuron count; assay type: in vivo, rat
# Protocol: After white rat brain was fixed with a stereotaxic frame, 1.5 μl (1 mg/ml) of ibotenic acid and PBS, or 1.5 μl (1 mg/ml) of berberine was injected into the entorhinal cortex region using a microinjector to prepare a model for dementia. […]
# Brain was fixed with 4% paraformaldehyde and cryosected to a thickness of 40 μm, and then the cryosected brain was permeablized with 0.5% Triton X-100 for 20 minutes and blocked using 15% blocking serum for 2 hours. After reacting with anti-calbindin antibody at a temperature 4° C. for 16 hours and then further reacting with FITC-labeled secondary antibody or rhodamin (TRITC)-labeled secondary antibody for 1 hour, the cells were fixed on a slide before examining under a confocal microscope.
# As an animal model for dementia, ibotenic acid was microinjected into the entorhinal cortex of adult rat brain using a stereotaxic frame.
# First, an adult rat was anesthetized, and its head was fixed with a stereotaxic frame. Subsequently, 1.5 μl (1 mg/ml) of ibotenic acid was injected into the entorhinal cortex region to prepare a model for dementia, and then berberine was injected into the same site. 2 weeks after operation, brain tissue sections were counter-stained with hematocylin to examine apoptosis and protective effect. After fluorescence-staining the cells, regions used for cell count were represented as squares (FIG. 14). In addition, the cells were fluorescence-stained with calbindin antibody, a nerve-specific marker, to examine nerve cell survival (see, Tables 8 to 10, FIGS. 11 and 12).
# [10] = N2 + dexamethasone + NGF 100 ng/ml
# [11] = Ibotenic Acid alone (reference)
compound,measurement,setting,value
"OO [H2O2, reference compound]",O.D.,"SH-SY5Y cells [1]; N2, H2O2 150 μM alone",0.056
same,Average (O.D. relative to H2O2 alone),"SH-SY5Y cells [1]; N2, H2O2 150 μM alone (reference = 100%; N2 without H2O2 = 429%)",100%
"bFGF: basic fibroblast growth factor, positive control increasing HiB5 survival and differentiation",differentiation into nerve cells (morphology),HiB5 cells [2],induced the differentiation into nerve cells; also recorded: cell bodies got smaller and neurites got longer
same,"cell survival rate / protective effect against apoptosis, increase over control","HiB5 cells [3]; HiB5 under differentiation conditions, MTT",1.5 times and 1.6 times
same,O.D. %,"HiB5 cells [3]; bFGF 20 ng, control = 100",150%
"C[C@@H]1C[C@H]2[C@@H]3CCC4=CC(=O)C=C[C@]4(C)[C@@]3(F)[C@@H](O)C[C@]2(C)[C@@]1(O)C(=O)CO [Dexamethasone, dexamethasone, reference compound]",O.D.,PC12 cells [4]; N2 + dexamethasone 1 μM alone,0.193
same,Average (O.D. relative to dexamethasone alone),PC12 cells [4]; N2 + dexamethasone 1 μM alone (reference = 100%; N2 = 118%),100%
"CC1=C(/C=C/C(C)=C/C=C/C(C)=C/C(=O)O)C(C)(C)CCC1 [Retinoic acid, reference compound]",Number of differentiated cells,SH-SY5Y cells [5]; N2 = 22.30,18.91
same,total average cell numbers,SH-SY5Y cells [5]; N2 = 42.33,24.75
same,Average (%) of differentiated cells,SH-SY5Y cells [5]; N2 = 44.47,81.59%
same,Average (O.D. relative to H2O2 alone),"SH-SY5Y cells [1]; N2, H2O2 + retinoic acid 5 μM",321%
same,O.D.,"SH-SY5Y cells [1]; N2, H2O2 + retinoic acid 5 μM",0.179
same,O.D.,SH-SY5Y cells [6]; 2 days,0.871.
same,Average (O.D. relative to N2),SH-SY5Y cells [6]; N2 = 100%,130%
MK-801,"number of dead nerve cells, of total nerve cells",[7],12-26%
"NGF: nerve growth factor, positive control in PC12 cells",O.D.,PC12 cells [8]; 2 days,0.349
same,Average (O.D. relative to RPMI),PC12 cells [8]; RPMI = 100%,208%
same,Average (O.D. relative to dexamethasone alone),PC12 cells [4]; [10],147%
same,O.D.,PC12 cells [4]; [10],0.283
same,cell survival rate increase,"PC12 cells [4]; dexamethasone stress, 2 days",about 1.5 times
"N[C@H](C(=O)O)c1cc(=O)[nH]o1 [Ibotenic Acid, ibotenic acid, reference compound]","cell number relative to Ibotenic Acid average = 100, CA (individual animals #1-#3)",[9]; Ibotenic Acid alone,116 and 112 and 73
same,"cell number relative to Ibotenic Acid average = 100, DG (individual animals #1-#3)",[9]; Ibotenic Acid alone,123 and 105 and 72
same,"cell number relative to Ibotenic Acid average = 100, ENT (individual animals #1-#3)",[9]; Ibotenic Acid alone,100 and 105 and 94
same,"cell number, CA (individual animals #1-#3)",[9]; Ibotenic Acid alone,57 and 55 and 36
same,"cell number, CA, AVR",[9]; Ibotenic Acid alone,49.3
same,"cell number, DG (individual animals #1-#3)",[9]; Ibotenic Acid alone,227 and 193 and 133
same,"cell number, DG, AVR",[9]; Ibotenic Acid alone,184.3
same,"cell number, ENT (individual animals #1-#3)",[9]; Ibotenic Acid alone,73 and 77 and 68
same,"cell number, ENT, AVR",[9]; Ibotenic Acid alone,72.7
same,"cell number (%) relative to Ibotenic Acid, CA, average",[9]; [11],100%
same,"cell number (%) relative to Ibotenic Acid, DG, average",[9]; [11],100%
same,"cell number (%) relative to Ibotenic Acid, ENT, average",[9]; [11],100%
same,reduction of calbindin-positive neurons in the hippocampus and entorhinal cortex,"[9]; ibotenic acid alone, 2 weeks after microinjection",30˜40%
same,"calbindin-positive neurons, recovery","[9]; ibotenic acid alone, 4 weeks after microinjection",recovered somewhat; also recorded: some of them were recovered
